Reference: US10203334B2, “Methods and compositions related to nucleic acid binding assays” (Nubad, LLC, priority 2012, dated 2019)

How the values were obtained:
DNA d(G4C4) [1] = experiment: Displacement of F-neo (42a) from GC DNA, 96-well; format: binding; conditions: one molar equivalent; FIG. 15
Description: The HTS by the displacement of a fluorescene-neomycin (F-neo (42a)) bound from a synthetic DNA sequence eight bases long designed to conform to A-form DNA by the synthetic molecule neomycin-anthraquinone (67) using a 96 well plate format and a fluorescent plate reader is disclosed.
The high throughput screening (HTS) has been designed to determine the binding of drugs to the target sequence d(G4C4). The target is predicted to exist predominately in the A-form conformation of DNA. This HTS involves the displacement of a fluorescene-neomycin (F-neo (42a)) by DNA binding molecules in a 96 well plate format using a fluorescent plate reader. […] The quality of the assay was determined by the calculation of a Z′-factor using equation 1 for the displacement of F-neo (42a) from the DNA by neomycin-anthraquinone 67. The final assay results were obtained using the average (μn) and standard deviation (σn) from 36 wells of 0.1 μM F-neo (42a)/DNA d(G4C4) as the negative control and from the average (μp) and standard deviation (σp) 36 wells of 0.1 μM F-neo (42a)/DNA d(G4C4) mixed with 0.3 μM neomycin-anthraquinone 67 as the positive control.
Upon binding to the DNA the fluorescence of F-neo (42a) is quenched. […] This increase is not observed with the addition of the minor groove binding compound 59, in which the change in the fluorescence observed is approximately the same as that of the DMSO control.

DNA d(G4C4) [2] = experiment: Displacement of TO-neo (36a) from GC DNA, 96-well; format: binding; conditions: FIG. 14
Description: The HTS by the displacement of a thiazole-neomycin (TO-neo (36a)) bound from a synthetic DNA sequence eight bases long designed to conform to A-form DNA by the synthetic molecule neomycin-anthraquinone 67 using a 96 well plate format and a fluorescent plate reader was disclosed herein.
The high throughput screening (HTS) has been designed to determine the binding of drugs to the target sequence d(G4C4). The target is predicted to exist predominately in the A-form conformation of DNA. This HTS involves the displacement of a TO-neo (36a) molecule by DNA binding molecules in a 96 well plate format using a fluorescent plate reader. […] The quality of the assay was determined by the calculation of a Z′-factor using equation 1 for the displacement of TO-neo (36a) from the DNA by a neomycin-anthraquinone 67 conjugate. […]
The fluorescence of the probe decrease approximately 60% with the addition of the neomycin-anthraquinone 67, a synthetic molecule predicted to bind in the major groove. However, with the addition of the minor groove binding compound 59, the change in fluorescence is less than 10%. The change in the fluorescence observed upon the addition of the compound 59 is approximately the same as that observed in the DMSO control.

bacterial A-site oligos = conditions: cited from earlier work
TAR RNA = conditions: read-out: IC50 for inhibition of Tat peptide binding to the TAR RNA; cited from earlier work
[3] = tested on: E. coli ribosomal A-site oligonucleotide (SEQ ID No. 1); experiment: 96-well F-neo displacement HTS on ribosomal A-site; format: binding; conditions: 0.30 mM F-neo, 0.3 mM A-site oligonucleotide, 1.0 mM neomycin
Description: [drawing 24] where FHNeo represents the protonated form of F-neo. F(-)Neo, upon binding to nucleic acids such as DNA or RNA, is destabilized by the nucleic acid backbone negative potential, shifting the equilibrium towards FH, making F-neo a weaker acid, raising the pKa, which is what we observe upon binding to the A-site. For the A-site targeted assay, we calculated the Z' factor (Z=1-3(2.7+2.8)/(414-267)=0.89. […] Provided is a detailed example for the development of a HTS by the displacement of a fluorescene-neomycin (F-neo (42a)) from rRNA A-site oligonucleotide (SEQ ID No. 1) using a 96 well plate format and a fluorescent plate reader. […] This HTS involves the displacement of a fluorescene-neomycin (F-neo (42a)) by potential RNA binding molecules in a 96 well plate format using a fluorescent plate reader. […] F-neo based RNA binding assays have been performed using a fluorescence spectrophotometer with a 96-well plate reader and results recorded in FIG. 4. […] Fo is defined as the baseline fluorescence intensity of the RNA/F-neo complex and F is the intensity with added drug. The difference between the fluorescence intensity baseline of F-neo/A-site complex and complex with added drug (F-Fo) indicates the extent of the competition of drug for the binding site, this allows the relative binding affinities of aminoglycosides to be established. […]

[4] = tested on: dimeric form of a parallel quadruplex formed by the Tetrahymena telomere; conditions: cited from earlier work

In the case of CN(C)CCCNC(=O)c1cc(NC(=O)c2cc(NC(=O)c3nc(NC(=O)c4nc(NC(=O)CCCNC(=O)c5cc(NC(=O)c6cc(NC(=O)c7nc(NC(=O)c8nccn8C)cn7C)cn6C)cn5C)cn4C)cn3C)cn2C)cn1C [compound 59, reference compound], the “change in fluorescence of F-neo (42a) bound to d(G4C4)2 on addition of compound” value (DNA d(G4C4) [1]) is reported as “not displaced” and the “decrease in fluorescence of TO-neo (36a) bound to d(G4C4)2 on addition of compound” value (DNA d(G4C4) [2]) is reported as “less than 10%”.
For NC[C@H]1O[C@H](O[C@H]2[C@H](O[C@@H]3O[C@H](CO)[C@@H](O)[C@H]3O)[C@@H](O)[C@H](N)C[C@@H]2N)[C@H](N)[C@@H](O)[C@@H]1O [ribostamycin], the “relative binding affinities with bacterial A-site oligos” value (“relative binding affinities” for short) (bacterial A-site oligos) is given as “neomycin>paromomycin>ribostamycin”.
For NC[C@@H]1O[C@H](O[C@H]2[C@@H](O)[C@H](O[C@@H]3[C@@H](O)[C@H](N)C[C@H](N)[C@H]3O[C@H]3O[C@H](CO)[C@@H](O)[C@H](O)[C@H]3N)O[C@@H]2CO)[C@H](N)[C@@H](O)[C@@H]1O [paromomycin], the “relative binding affinities” value (bacterial A-site oligos) is listed as “neomycin>paromomycin>ribostamycin”.
In the case of gentamicin, the IC50 (TAR RNA) is listed as 45 ± 4 µM.
In the case of NCC1O[C@H](OC2C(O)C(OC3C(O)[C@H](N)CC(N)[C@H]3O[C@H]3OC(CN)[C@@H](O)C(O)C3N)O[C@@H]2CSCCNC(=S)NCCNC(=O)c2ccc3c(c2)C(=O)c2ccccc2C3=O)C(N)C(O)[C@@H]1O (stereo partly drawn) [neomycin-anthraquinone 67, Neomycin-Anthraquinone Conjugate], the “change in fluorescence of F-neo (42a) bound to d(G4C4)2 on addition of compound” value (DNA d(G4C4) [1]) is reported as “significant increase in the fluorescence” and the “decrease in fluorescence of TO-neo (36a) bound to d(G4C4)2 on addition of compound” value (DNA d(G4C4) [2]) is reported as “approximately 60%”.
In the case of [H]/N=C(/N)N[C@H]1[C@H](O)[C@@H](O)[C@H](O[C@@H]2O[C@@H](C)[C@](O)(C=O)[C@H]2O[C@@H]2O[C@@H](CO)[C@H](O)[C@@H](O)[C@@H]2NC)[C@@H](N/C(N)=N\[H])[C@@H]1O [streptomycin], the IC50 (TAR RNA) is listed as 9.5 ± 0.8 µM.
For neomycin, the “effect of added drug on fluorescence of F-neo/A-site oligonucleotide complex” value [3] is given as “restored the intensity to F-neo only levels”, the IC50 (TAR RNA) is given as 0.92 ± 0.09 µM and the “relative binding affinities” value (bacterial A-site oligos) is given as “neomycin>paromomycin>ribostamycin”. For the same molecule, the “affinity” value [4] was “nanomolar affinity”.
